Experimental data: patent US20090258873A1, “Novel tetrahydropyridothiophenes” (priority 2005, published 2009)

Tests used:
[1] = tested on: RKO (RKOp27) human colon adenocarcinoma cells; test: Alamar Blue cell viability assay, anti-proliferative/cytotoxic activity on proliferating RKOp27 cells; assay type: cell-based; details: no Ponasterone A, 72 hours incubation, read-out: IC50 RKO p27 uninduced (proliferating)
Description: The anti-proliferative I cytotoxic activity of the compounds described herein, can be tested on subclones of RKO (RKOp27) human colon adenocarcinoma cells (Schmidt et al., Oncogene 19, 2423-2429; 2000) using the Alamar Blue cell viability assay (described in O'Brien et al. Eur J Biochem 267, 5421-5426, 2000). The compounds are dissolved as 20 mM solutions in dimethylsulfoxide (DMSO) and subsequently diluted in semi-logarithmic steps. DMSO dilutions are further diluted 1:100 into Dulbecco's modified Eagle's medium (DMEM) containing 10% fetal calf serum to a final concentration twice as much as the final concentration in the test. RKO subclones are seeded into 96 well flat bottom plates at a density of 5000 cells per well in a volume of 50 μl per well. 24 hours after seeding the 50 μl each of the compound dilutions in DMEM medium are added into each well of the 96 Well plate. Each compound dilution is tested as quadruplicates. Wells containing untreated control cells are filled with 50 μl DMEM medium containing 1% DMSO. The cells are then incubated with the substances for 72 hours at 37° C. in a hunified atmosphere containing 5% carbon dioxide. To determine the viability of the cells, 10 μl of an Alamar Blue solution (Biosource) are added and the fluorescence is measured at an extinction of 544 nm and an emission of 590 nm. For the calculation of the cell viability the emission value from untreated cells is set as 100% viability and the emission rates of treated cells are set in relation to the values of untreated cells. Viabilities are expressed as % values.
The corresponding IC50 values of the compounds for anti-proliferative/cytotoxic activity are determined from the concentration-effect curves.
Representative IC50 values for anti-proliferation/cytotoxicity determined in the mentioned assay follow from the following table A, in which the numbers of the compounds correspond to the numbers of the examples.

[2] = tested on: RKO colon adenocarcinoma cells (RKOp27) arrested by ectopic p27Kip1; test: Alamar Blue cell viability assay on RKOp27 cells arrested by p27Kip1 expression induced with Ponasterone A (cell cycle specific mode of action); assay type: cell-based; details: Homo sapiens, RKOp27 cells arrested by p27Kip1 induced with 10 μM Ponasterone A, 72 hours incubation, read-out: IC50 RKO p27 induced (arrested)
Description: To determine the cell cycle specific mode of action, subclones of RKO colon adenocarcinoma cells (RKOp27 or RKOp21 as described by Schmidt et al. in Oncogene 19, 2423-2429; 2000) are seeded into 96 well flat bottom plates at a density of 15000 cells per well in a volume of 50 μl per well in DMEM growth medium with 10% FCS containing 10 μM Ponasterone A. 24 hours after seeding the 50 μl each of the compound dilutions in DMEM medium are added into each well of the 96 Well plate. Each compound dilution is tested as quadruplicates. Wells containing untreated control cells are filled with 50 μl DMEM medium containing 1% DMSO. The cells are then incubated with the substances for 72 hours at 37° C. in a humidified atmosphere containing 5% carbon dioxide. To determine the viability of the cells, 10 μl of an Alamar Blue solution (Biosource) are added and the fluorescence was measured at an extinction of 544 nm and an emission of 590 nm. For the calculation of the cell viability the emission value from untreated cells is set as 100% viability and the emission rates of treated cells are set in relation to the values of untreated cells. Viabilities are expressed as % values. Viability is compared of proliferating cells grown in the absence of the inducer Ponasterone A, versus viability of cells arrested by the expression of ectopic p27Kip1 induced by Ponasterone A.

SMILES | IC50 [2] | IC50 [1]
CCCC(=O)N1CCc2c(sc(NC(=O)CCc3ccco3)c2C#N)C1 [Example 14, N-(6-Butyryl-3-cyano-4,5,6,7-tetrahydro-thieno[2,3-c]pyridin-2-yl)-3-furan-2-yl-propionamide] | > 100 µM | ≤ 300 nM
N#Cc1c(NC(=O)CCC2CCCCC2)sc2c1CCN(C(=O)CCn1ccnc1)C2 [Example 58] | > 100 µM | 300 to 2000 nM
CCCC(=O)N1CCc2c(sc(NC(=O)CC(C)c3ccccc3)c2C#N)C1 (racemic) [Example 27, (RS)—N-(6-Butyryl-3-cyano-4,5,6,7-tetrahydro-thieno[2,3-c]pyridin-2-yl)-3-phenyl-butyramide] | > 100 µM | 300 to 2000 nM
N#Cc1c(NC(=O)CCc2ccccc2)sc2c1CCN(C(=O)Cc1cccnc1)C2 [Example 2, N-[3-Cyano-6-(2-pyridin-3-yl-ethanoyl)-4,5,6,7-tetrahydro-thieno[2,3-]pyridin-2-yl]-3-phenyl-propionamide] | > 100 µM | ≤ 300 nM
COCCOCC(=O)N1CCc2c(sc(NC(=O)CCc3ccco3)c2C#N)C1 [Example 9, N-{3-Cyano-6-[2-(2-methoxy-ethoxy)-ethanoyl]-4,5,6,7-tetrahydro-thieno[2,3-c]pyridin-2-yl}-3-furan-2-yl-propionamide] | > 100 µM | ≤ 300 nM
CC(CC(=O)Nc1sc2c(c1C#N)CCN(C(=O)Cc1ccccn1)C2)c1ccccc1 (racemic) [Example 22, (RS)—N-[3-Cyano-6-(2-pyridin-2-yl-ethanoyl)-4,5,6,7-tetrahydro-thieno[2,3-c]pyridin-2-yl]-3-phenyl-butyramide] | > 100 µM | ≤ 300 nM
N#Cc1c(NC(=O)CCc2ccco2)sc2c1CCN(C(=O)CCc1cccnc1)C2 [Example 12, N-[3-Cyano-4-6-(3-pyridin-3-yl-propanoyl)-4,5,6,7-tetrahydro-thieno[2,3-c]pyridin-2-yl]-3-furan-2-yl-propionamide] | > 100 µM | ≤ 300 nM
N#Cc1c(NC(=O)CCc2ccccc2)sc2c1CCN(C(=O)CCc1ccccn1)C2 [Example 30, N-[3-Cyano-6-(3-pyridin-2-yl-propanoyl)-4,5,6,7-tetrahydro-thieno[2,3-c]pyridin-2-yl]-3-phenyl-propionamide] | > 100 µM | ≤ 300 nM
N#Cc1c(NC(=O)CCc2ccccc2)sc2c1CCN(C(=O)CCc1cccnc1)C2 [Example 1, N-[3-Cyano-6-(3-pyridn3-yl-propanoyl)-4,5,6,7-tetrahydro-thieno[2,3-c]pyridin-2-yl]-3-phenyl-propionamide] | > 100 µM | 300 to 2000 nM

Continued, in another order:

IC50 [2] | SMILES | IC50 [1]
> 100 µM | N#Cc1c(NC(=O)CCc2ccco2)sc2c1CCN(C(=O)CCn1ccnc1)C2 [Example 15, N-[3-Cyano-6-(3-Imidazo-1-yl-propanoyl)-4,5,6,7-tetrahydro-thieno[2,3-c]pyridin-2-yl]-3-furan-2-yl-propionamide] | ≤ 300 nM
> 100 µM | N#Cc1c(NC(=O)CCc2ccccc2)sc2c1CCN(C(=O)Cc1ccncc1)C2 [Example 20, N-[3-Cyano-6-(2-pyridin-4-yl-ethanoyl)-4,5,6,7-tetrahydro[2,3-c]pyridin-2-yl]-3-phenyl-propionamide] | ≤ 300 nM
≥ 40 µM | Cc1nccn1CC(=O)N1CCc2c(sc(NC(=O)CC(C)c3ccccc3)c2C#N)C1 (racemic) [Example 37, (RS)—N-{3-Cyano-6-[2-(2-methyl-imidazo-1-yl)-ethanoyl]-4,5,6,7-tetrahydro-thieno[2,3-c]pyridin-2-yl}-3-phenyl-butyramide] | ≤ 300 nM
≥ 40 µM | Cc1cn(CC(=O)N2CCc3c(sc(NC(=O)CC(C)c4ccccc4)c3C#N)C2)cn1 (racemic) [Example 40, (RS)—N-{3-Cyano-6-[2-(4-methyl-imidazol-yl)-ethanoyl]-4,5,6,7-tetrahydro-thieno[2,3-c]pyridin-2-yl}-3-phenyl-butyramide] | 300 to 2000 nM
> 100 µM | CC(=O)OCC(=O)N1CCc2c(sc(NC(=O)CCc3ccccc3)c2C#N)C1 [Example 7, Acetic acid 2-[3-cyano-2-(3-phenyl-propanoylamino)-4,7-dihydro-5H-thieno[2,3-c]pyridin-6-yl]-2-oxo-ethyl ester] | ≤ 300 nM
> 100 µM | CC(CC(=O)Nc1sc2c(c1C#N)CCN(C(=O)CCc1ccccn1)C2)c1ccccc1 (racemic) [Example 29, (RS)—N-[3-Cyano-6-(3-pyridin-2-yl-propanoyl)-4,5,6,7-tetrahydro-thieno[2,3-c]pyridin-2-yl]-3-phenyl-butyramide] | 300 to 2000 nM
> 100 µM | N#Cc1c(NC(=O)CCc2ccco2)sc2c1CCN(C(=O)Cc1ccccn1)C2 [Example 10, N-[3-Cyano-6-(2-pyridin-2-yl-ethanoyi)-4,5,6,7-tetrahydro-thieno[2,3-c]pyridin-2-yl]-3-furan-2-yl-propionamide] | ≤ 300 nM
≥ 10 µM | Cc1nccn1CCC(=O)N1CCc2c(sc(NC(=O)CC(C)c3ccccc3)c2C#N)C1 (racemic) [Example 32, (RS)—N-{3-Cyano-6-[3-(2-methyl-imidazol-1-yl)-propanoyl]-4,5,6,7-tetrahydro-thieno[2,3-c]pyridin-2-yl}-3-phenyl-butyramide] | 300 to 2000 nM
≥ 10 µM | Cn1ccnc1CCC(=O)N1CCc2c(sc(NC(=O)CCc3ccccc3)c2C#N)C1 [Example 35, N-{3-Cyano-4-[3-(1-methyl-1H-imidazo-2-yl)-propanoyl]-4,5,6,7-tetrahydro-thieno[2,3-c]pyridin-2-yl}-3-phenyl-propionamide] | ≤ 300 nM
